Numbered stars: 1 amine (or outer) side, 2 acyl side, 3 side chain; on linkers, the order of the positions; unused ones are H or OH. Bridge positions count the residues as written; N and C are the ends. Side chains are listed from the residue outwards. Peptide text beside a SMILES is read from it. * marks the point of attachment. C20 diacid = O=C(O)CCCCCCCCCCCCCCCCCCC(=O)*; γGlu = O=C(O)[C@H](CCC(=O)[*:2])N[*:1]; AEEA = NCCOCCOCC(=O)O
What was measured:
[1] = biological target: T1, human amylin receptor (amylin 3(a) receptor: human calcitonin receptor + RAMP-3) (Homo sapiens, UniProt O60896+P30988); test: Assay (II)a functional assay, human amylin receptor (CRE luciferase, BHK cells); assay type: cell-based
T1 construct: expressed in transfected cells
T1 sequence (P30988 25-474): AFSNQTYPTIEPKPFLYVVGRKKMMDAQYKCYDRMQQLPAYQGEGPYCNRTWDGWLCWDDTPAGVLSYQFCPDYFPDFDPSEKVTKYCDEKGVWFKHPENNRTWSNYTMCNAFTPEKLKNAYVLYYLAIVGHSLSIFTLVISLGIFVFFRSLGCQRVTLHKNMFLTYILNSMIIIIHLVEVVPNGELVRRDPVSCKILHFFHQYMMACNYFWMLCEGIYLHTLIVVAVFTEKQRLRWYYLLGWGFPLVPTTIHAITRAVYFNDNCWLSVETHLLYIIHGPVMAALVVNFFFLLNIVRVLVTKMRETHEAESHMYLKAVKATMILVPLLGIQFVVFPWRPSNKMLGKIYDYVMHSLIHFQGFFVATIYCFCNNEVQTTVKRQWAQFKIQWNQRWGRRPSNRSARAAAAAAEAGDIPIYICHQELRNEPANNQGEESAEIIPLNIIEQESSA
T1 sequence (O60896 24-148 partner): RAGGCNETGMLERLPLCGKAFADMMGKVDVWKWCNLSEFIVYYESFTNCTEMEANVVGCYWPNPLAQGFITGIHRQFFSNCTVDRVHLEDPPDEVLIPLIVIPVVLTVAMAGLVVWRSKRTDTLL

[2] = biological target: T2, human amylin receptor (Homo sapiens, UniProt O60896+P30988); test: Assay (V) binding to the human amylin receptor (SPA, 125I-rat amylin)
T2 construct: expressed in transfected cells
T2 sequence (P30988 25-474): T1 sequence (P30988 25-474)
T2 sequence (O60896 24-148 partner): T1 sequence (O60896 24-148 partner)
Protocol: The binding assay was performed using scintillation proximity assay (SPA) beads (RPNQ0001) from PerkinElmer and cell membranes from the Amylin 3(a)/CRE-luc cells (as described in Assay (II)) were used. Membranes were prepared in the following way; the cells were rinsed with PBS and incubated with Versene for approximately 5 min before harvesting. The cells were flushed with PBS and the cell-suspension was centrifuged for 5 min at 1000 rpm. […] The resulting pellet was resuspended in buffer 2 and protein concentration was measured (BCA protein Assay, Pierce). The homogenate was kept cold during the whole procedure. The membranes were kept at −80° C. until use. The assay was performed in a 384 well Optiplate (PerkinElmer) in a total volume of 40 ul. Membranes were mixed with SPA beads. Final concentration of membranes 35 ng/μL final and SPA beads was 0.05 mg/well. Test-compounds were dissolved in DMSO and further diluted in assay buffer (50 mM Hepes, pH 7.4, 1 mM CaCl2, 5 mM MgCl2, 0.1% OA and 0.02% Tween20). […] Samples were analyzed on TopCounter™ (Packard). The IC50 was calculated using (one site binding competition analysis) GraphPad Prism5 as a measure of receptor affinity.

[3] = Table 6, human functional selectivity (hCTR EC50 / hAmylin-R EC50)
[4] = Table 7b, human calcitonin receptor binding IC50 divided by human amylin receptor binding IC50
[5] = Table 7c, human calcitonin receptor binding IC50 divided by human amylin receptor binding IC50
[6] = human binding ratio, included for comparison

| Ratio hCT/hAmylin funct. [1, 3] | Ratio hCT/hAmylin funct. ([1]; Table 6a, human functional selectivity (hCTR EC50 / hAmylin-R EC50), at least 5) | Ratio hCT/hAmylin funct. ([1]; Table 6i, hCTR funct. EC50 / hAmylin-R funct. EC50) | Ratio hCT/hAmylin binding [2, 4] | Ratio hCT/hAmylin binding [2, 5] | Ratio hCT/hAmylin binding [2, 6] | Compound |
| --- | --- | --- | --- | --- | --- | --- |
| 5.7 | 5.7 | 5.7 | 20.0 | 20.0 | 20.0 | CC[C@H](C)[C@H](NC(=O)[C@@H]1CCCN1C(=O)CNC(=O)[C@H](Cc1ccccc1)NC(=O)[C@H](CC(N)=O)NC(=O)[C@@H]1CCCN1C(=O)[C@H](CO)NC(=O)[C@H](CO)NC(=O)[C@H](Cc1c[nH]cn1)NC(=O)[C@H](CCCNC(=N)N)NC(=O)[C@H](CC(C)C)NC(=O)[C@H](Cc1ccccc1)NC(=O)[C@H](CCC(=O)O)NC(=O)[C@H](C)NC(=O)[C@H](CC(C)C)NC(=O)[C@H](CCCNC(=N)N)NC(=O)[C@H](CCC(N)=O)NC(=O)[C@@H](NC(=O)[C@H](C)NC(=O)[C@@H]1CSSC[C@H](NC(=O)[C@H](CCCCN)NC(=O)CC[C@H](NC(=O)CCCCCCCCCCCCCCCCCCC(=O)O)C(=O)O)C(=O)N[C@@H](CC(N)=O)C(=O)N[C@@H]([C@@H](C)O)C(=O)N[C@@H](C)C(=O)N[C@@H]([C@@H](C)O)C(=O)N1)[C@@H](C)O)C(=O)N[C@@H](CC(C)C)C(=O)N1CCC[C@H]1C(=O)N1CCC[C@H]1C(=O)N[C@H](C(=O)N[C@@H](CC(N)=O)C(=O)N[C@H](C(=O)NCC(=O)N[C@@H](CO)C(=O)N[C@@H](CC(N)=O)C(=O)N[C@H](C(=O)N[C@@H](Cc1ccc(O)cc1)C(N)=O)[C@@H](C)O)C(C)C)[C@@H](C)O [Example 6] ({C20 diacid-γGlu}-KCNTATCATQRLAEFLRHSSPNFGPILPPTNVGSNTY-NH2; disulfide 2-7) |
| 1.1 |  |  |  |  | 0.5 | CC[C@H](C)[C@H](NC(=O)[C@H](C)NC(=O)CNC(=O)[C@H](Cc1ccccc1)NC(=O)[C@H](CC(N)=O)NC(=O)[C@@H]1CCCN1C(=O)[C@H](CO)NC(=O)[C@H](CO)NC(=O)[C@H](Cc1c[nH]cn1)NC(=O)[C@H](CCCNC(=N)N)NC(=O)[C@H](CC(C)C)NC(=O)[C@H](Cc1ccccc1)NC(=O)[C@H](CCC(=O)O)NC(=O)[C@H](C)NC(=O)[C@H](CC(C)C)NC(=O)[C@H](CCCNC(=N)N)NC(=O)[C@H](CCC(N)=O)NC(=O)[C@@H](NC(=O)[C@H](C)NC(=O)[C@@H]1CSSC[C@H](NC(=O)[C@H](CCCCN)NC(=O)CC[C@H](NC(=O)CCCCCCCCCCCCCCCCCCC(=O)O)C(=O)O)C(=O)N[C@@H](CC(N)=O)C(=O)N[C@@H]([C@@H](C)O)C(=O)N[C@@H](C)C(=O)N[C@@H]([C@@H](C)O)C(=O)N1)[C@@H](C)O)C(=O)N1CCC[C@H]1C(=O)N[C@@H](CO)C(=O)N[C@@H](CO)C(=O)N[C@H](C(=O)N[C@@H](CC(N)=O)C(=O)N[C@H](C(=O)NCC(=O)N[C@@H](CO)C(=O)N[C@@H](CC(N)=O)C(=O)N[C@H](C(=O)N1CCC[C@H]1C(N)=O)[C@@H](C)O)C(C)C)[C@@H](C)O [Example 8] ({C20 diacid-γGlu}-KCNTATCATQRLAEFLRHSSPNFGAIPSSTNVGSNTP-NH2; disulfide 2-7) |
| 1.0 |  |  |  |  | 1.2 | CC[C@H](C)[C@H](NC(=O)[C@H](C)NC(=O)CNC(=O)[C@H](Cc1ccccc1)NC(=O)[C@H](CC(N)=O)NC(=O)[C@@H]1CCCN1C(=O)[C@H](CO)NC(=O)[C@H](CO)NC(=O)[C@H](Cc1c[nH]cn1)NC(=O)[C@H](CCCNC(=N)N)NC(=O)[C@H](CC(C)C)NC(=O)[C@H](Cc1ccccc1)NC(=O)[C@H](CC(=O)O)NC(=O)[C@H](C)NC(=O)[C@H](CC(C)C)NC(=O)[C@H](CCCNC(=N)N)NC(=O)[C@H](CCC(N)=O)NC(=O)[C@@H](NC(=O)[C@H](C)NC(=O)[C@@H]1CSSC[C@H](NC(=O)[C@H](CCCCN)NC(=O)CC[C@H](NC(=O)CCCCCCCCCCCCCCCCCCC(=O)O)C(=O)O)C(=O)N[C@@H](CC(N)=O)C(=O)N[C@@H]([C@@H](C)O)C(=O)N[C@@H](C)C(=O)N[C@@H]([C@@H](C)O)C(=O)N1)[C@@H](C)O)C(=O)N1CCC[C@H]1C(=O)N[C@@H](CO)C(=O)N[C@@H](CO)C(=O)N[C@H](C(=O)N[C@@H](CC(N)=O)C(=O)N[C@H](C(=O)NCC(=O)N[C@@H](CO)C(=O)N[C@@H](CC(N)=O)C(=O)N[C@H](C(=O)N1CCC[C@H]1C(N)=O)[C@@H](C)O)C(C)C)[C@@H](C)O [Example 10] ({C20 diacid-γGlu}-KCNTATCATQRLADFLRHSSPNFGAIPSSTNVGSNTP-NH2; disulfide 2-7) |
|  |  |  | 63.0 | 63.0 | 63.0 | CC[C@H](C)[C@H](NC(=O)[C@H](C)NC(=O)CNC(=O)[C@H](Cc1ccccc1)NC(=O)[C@H](CC(N)=O)NC(=O)[C@@H]1CCCN1C(=O)[C@H](CO)NC(=O)[C@H](CO)NC(=O)[C@H](Cc1c[nH]cn1)NC(=O)[C@H](CCCNC(=N)N)NC(=O)[C@H](CC(C)C)NC(=O)[C@H](Cc1ccccc1)NC(=O)[C@H](Cc1c[nH]cn1)NC(=O)[C@H](C)NC(=O)[C@H](CC(C)C)NC(=O)[C@H](CCCNC(=N)N)NC(=O)[C@H](CCC(N)=O)NC(=O)[C@@H](NC(=O)[C@H](C)NC(=O)[C@@H]1CSSC[C@H](NC(=O)[C@@H](N)CCCCNC(=O)CC[C@H](NC(=O)CCCCCCCCCCCCCCCCCCC(=O)O)C(=O)O)C(=O)N[C@@H](CC(N)=O)C(=O)N[C@@H]([C@@H](C)O)C(=O)N[C@@H](C)C(=O)N[C@@H]([C@@H](C)O)C(=O)N1)[C@@H](C)O)C(=O)N1CCC[C@H]1C(=O)N[C@@H](CO)C(=O)N[C@@H](CO)C(=O)N[C@H](C(=O)N1CCC[C@H]1C(=O)N[C@H](C(=O)NCC(=O)N[C@@H](CO)C(=O)N[C@@H](CC(N)=O)C(=O)N[C@H](C(=O)N[C@@H](Cc1ccc(O)cc1)C(N)=O)[C@@H](C)O)C(C)C)[C@@H](C)O [Example 62] (H-K([γGlu-C20 diacid])CNTATCATQRLAHFLRHSSPNFGAIPSSTPVGSNTY-NH2; disulfide 2-7; N-terminus assumed) |
|  |  |  | 80.0 | 80.0 | 80.0 | CC[C@H](C)[C@H](NC(=O)[C@H](C)NC(=O)CNC(=O)[C@H](Cc1ccccc1)NC(=O)[C@H](CC(N)=O)NC(=O)[C@@H]1CCCN1C(=O)[C@H](CO)NC(=O)[C@H](CO)NC(=O)[C@H](Cc1c[nH]cn1)NC(=O)[C@H](CCCNC(=N)N)NC(=O)[C@H](CC(C)C)NC(=O)[C@H](Cc1ccccc1)NC(=O)[C@H](CC(N)=O)NC(=O)[C@H](C)NC(=O)[C@H](CC(C)C)NC(=O)[C@H](CCCNC(=N)N)NC(=O)[C@H](CCC(N)=O)NC(=O)[C@@H](NC(=O)[C@H](C)NC(=O)[C@@H]1CSSC[C@H](NC(=O)[C@@H](N)CCCCNC(=O)COCCOCCNC(=O)CC[C@H](NC(=O)CCCCCCCCCCCCCCCCCCC(=O)O)C(=O)O)C(=O)N[C@@H](CC(N)=O)C(=O)N[C@@H]([C@@H](C)O)C(=O)N[C@@H](C)C(=O)N[C@@H]([C@@H](C)O)C(=O)N1)[C@@H](C)O)C(=O)N1CCC[C@H]1C(=O)N[C@@H](CO)C(=O)N[C@@H](CO)C(=O)N[C@H](C(=O)N[C@@H](CC(N)=O)C(=O)N[C@H](C(=O)NCC(=O)N[C@@H](Cc1c[nH]cn1)C(=O)N[C@@H](CC(N)=O)C(=O)N[C@H](C(=O)N[C@@H](Cc1ccc(O)cc1)C(N)=O)[C@@H](C)O)C(C)C)[C@@H](C)O [Example 76] (H-K([AEEA-γGlu-C20 diacid])CNTATCATQRLANFLRHSSPNFGAIPSSTNVGHNTY-NH2; disulfide 2-7 (inferred); N-terminus and C-terminus assumed) |
